Each structure is given as a SMILES string.

Assay [1] addresses T1, hCA II (Homo sapiens, UniProt P00918).
T1 construct: from tissue; host or cells: human erythrocytes
Put plainly: hCA II inhibition, esterase assay with p-nitrophenylacetate as substrate. The assay is classed as biochemical. As to conditions: NPA substrate; for Ki: Lineweaver-Burk plots; for IC50: purified from human erythrocytes. Here is the method: (§1) Erythrocytes were obtained from the Research Hospital at Atatürk University. The red cells were haemolysed with ice-cold water after washing with 0.9% NaCl. The hemolysate was applied to the prepared Sepharose-4B-tyrosine-sulfanylamide affinity gel. Both CA isoenzymes were purified by Sepharose-4B-L-tyrosine-sulfanilamide affinity chromatography in a single step [58, 59, 60]. Sepharose-4B-L-tyrosine-sulfanilamide was prepared according to a previous method. Thus, homogenate solution acidity was adjusted and supernatant was transferred to the previously prepared Sepharose-4B-L-tyrosine-sulphanilamide affinity column. The proteins flow in the column eluates was spectrophotometrically determined at 280 nm. All purification steps were performed at 4 °C. Protein quantity was determined at 595 nm according to the Bradford method. Bovine serum albumin was used as the standard protein [64, 65, 66]. To monitor purification of both isoenzymes, sodium dodecyl sulphate-polyacrylamide gel electrophoresis (SDS-PAGE) was used according to the procedure of Laemmli. In this application, the imaging method was performed in 10% and 3% acrylamide for the running and the stacking gel, respectively, with 0.1% SDS [68, 69, 70].
(§2) Enzyme activity was determined hydrolysis of p-nitrophenylacetate (PNA) to p-nitrophenolate at 348 nm according to the method of Verpoorte et al. and described previously. The inhibitory effects of β-lactam derivatives 2a–k were examined. To obtain the half maximal inhibitory concentration (IC50) values, CA I, and II activity was measured in the presence of β-lactam derivatives at different cuvette concentrations. Activity (%)-[β-lactam] graph was drawn for each of the β-lactam derivatives 2a–k. To determine Ki values, three different β-lactam derivative concentrations were tested. In these experiments, different substrate (PNA) concentrations were used and Lineweaver-Burk curves were drawn as previously described.

Assay [2] has as its target T2, hCA I (Homo sapiens, UniProt P00915).
T2 construct: from tissue; host or cells: human erythrocytes
Put plainly: hCA I inhibition, esterase assay with p-nitrophenylacetate as substrate. As to conditions: NPA substrate; for Ki: Lineweaver-Burk plots; for IC50: purified from human erythrocytes. The assay is classed as biochemical. Here is the method:
as §1, §2

T2 sequence (P00915 whole entry): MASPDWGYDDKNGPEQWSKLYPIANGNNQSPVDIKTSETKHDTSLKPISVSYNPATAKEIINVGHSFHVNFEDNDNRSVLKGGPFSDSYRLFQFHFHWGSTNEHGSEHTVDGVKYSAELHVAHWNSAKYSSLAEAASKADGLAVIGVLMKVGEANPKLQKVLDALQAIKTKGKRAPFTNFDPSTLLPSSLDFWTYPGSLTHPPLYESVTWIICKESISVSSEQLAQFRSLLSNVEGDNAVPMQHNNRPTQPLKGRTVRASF

For the compound `CC(=O)O[C@@H]1C(=O)N(C2Cc3ccccc3C2)[C@@H]1c1ccccc1` (relative stereo) [Compound 2a, (3S*,4R*)-1-(2,3-Dihydro-1H-inden-2-yl)-2-oxo-4-phenylazetidin-3-yl acetate], in assay [1], the affinity, expressed as Ki, was 3.54 ± 0.405 nM and inhibition was half-maximal at 5.21 nM (IC50). Also, in assay [2], the Ki (in general, a measure of affinity in units of concentration, obtained from inhibition or displacement) is 0.44 ± 0.115 nM and the IC50 – broadly, the point on the concentration scale where inhibition reaches its midpoint – is 0.612 nM.
In the case of `COc1cccc([C@@H]2[C@H](OC(C)=O)C(=O)N2C2Cc3ccccc3C2)c1` (relative stereo) [Compound 2b, (3S*,4R*)-1-(2,3-Dihydro-1H-inden-2-yl)-2-(3-methoxyphenyl)-4-oxoazetidin-3-yl acetate], in assay [1], the Ki was 3.15 ± 1.14 nM and the IC50 is 6.42 nM. In assay [2], this compound showed a Ki of 1.41 ± 0.547 nM and a half-maximal inhibitory concentration (IC50) of 2.3 nM.
`CC(=O)O[C@@H]1C(=O)N(C2Cc3ccccc3C2)[C@@H]1c1ccc(C)cc1` (relative stereo) [Compound 2c, (3S*,4R*)-1-(2,3-Dihydro-1H-inden-2-yl)-2-oxo-4-p-tolylazetidin-3-yl acetate]: in assay [1], the affinity corresponds to a Ki of 2.96 ± 0.157 nM and half-maximal inhibition (IC50) was put at 3.71 nM. In assay [2], this compound returned a Ki of 1.5 ± 0.657 nM and an IC50 of 2.11 nM.
As for `CC(=O)O[C@@H]1C(=O)N(C2Cc3ccccc3C2)[C@@H]1c1cccc(C)c1` (relative stereo) [Compound 2d, (3S*,4R*)-1-(2,3-Dihydro-1H-inden-2-yl)-2-oxo-4-m-tolylazetidin-3-yl acetate], the Ki in assay [1] worked out at 3.26 ± 0.708 nM; in assay [2], 1.49 ± 0.29 nM. In addition, the figures for the half-inhibitory concentration (IC50) in assay [1] and in assay [2] were 4.18 nM and 0.231 nM, respectively.
For `CC(=O)O[C@@H]1C(=O)N(C2Cc3ccccc3C2)[C@@H]1c1cccc(Cl)c1` (relative stereo) [Compound 2e, (3S*,4R*)-2-(3-Chlorophenyl)-1-(2,3-dihydro-1H-inden-2-yl)-4-oxoazetidin-3-yl acetate], the inhibitory constant (Ki) came out at 8.34 ± 3.53 nM in assay [1] and 6.29 ± 2.07 nM in assay [2]. For the same compound, the IC50 in assay [1] was 5.83 nM; in assay [2], 3.98 nM.
In assay [1], `CC(=O)O[C@@H]1C(=O)N(C2Cc3ccccc3C2)[C@@H]1c1ccc(Cl)c(Cl)c1` (relative stereo) [Compound 2f, (3S*,4R*)-2-(3,4-Dichlorophenyl)-1-(2,3-dihydro-1H-inden-2-yl)-4-oxoazetidin-3-yl acetate] registered an inhibitory constant (Ki) of 1.5 ± 0.421 nM and an IC50 of 5.97 nM. In assay [2], this compound showed a Ki of 1.16 ± 0.514 nM and a half-inhibitory concentration (IC50) of 1.63 nM.
In assay [1], `CC(=O)O[C@@H]1C(=O)N(C2Cc3ccccc3C2)[C@@H]1c1cccc(Br)c1` (relative stereo) [Compound 2g, (3S*,4R*)-2-(3-Bromophenyl)-1-(2,3-dihydro-1H-inden-2-yl)-4-oxoazetidin-3-yl acetate] yielded a Ki of 3.39 ± 1.16 nM and an IC50 of 3.81 nM. In assay [2], the affinity corresponds to a Ki of 0.35 ± 0.105 nM and the IC50 turned out to be 0.652 nM.
Take `CC(=O)O[C@@H]1C(=O)N(C2Cc3ccccc3C2)[C@@H]1c1ccccc1Br` (relative stereo) [Compound 2h, (3S*,4R*)-2-(2-Bromophenyl)-1-(2,3-dihydro-1H-inden-2-yl)-4-oxoazetidin-3-yl acetate]: the inhibition constant (Ki) in assay [1] was found to be 2.19 ± 0.921 nM; in assay [2], 0.91 ± 0.143 nM. The values for the IC50 in assay [1] and in assay [2] were 5.21 nM and 2.65 nM, respectively.
For the compound `CC(=O)O[C@@H]1C(=O)N(C2Cc3ccccc3C2)[C@@H]1c1ccccc1[N+](=O)[O-]` (relative stereo) [Compound 2j, (3S*,4R*)-1-(2,3-Dihydro-1H-inden-2-yl)-2-(2-nitrophenyl)-4-oxoazetidin-3-yl acetate], in assay [1], the affinity, expressed as Ki, was 2.88 ± 1.17 nM and the IC50 worked out at 5.02 nM. Besides, in assay [2], the inhibition constant (Ki) was 1.09 ± 0.136 nM and the half-maximal inhibitory concentration (IC50) stood at 4.81 nM.
The corresponding values for `CC(=O)O[C@@H]1C(=O)N(C2Cc3ccccc3C2)[C@@H]1c1ccc(F)cc1` (relative stereo) [Compound 2k, (3S*,4R*)-1-(2,3-Dihydro-1H-inden-2-yl)-2-(4-fluorophenyl)-4-oxoazetidin-3-yl acetate] are 1.34 ± 0.539 nM, 6.86 nM, 0.94 ± 0.43 nM and 2.5 nM.
As for `CC(=O)OC1C(=O)N(C2Cc3ccccc3C2)C1c1ccc(Br)cc1` (stereo not drawn) [Compound 2ı, (3S*,4R*)-2-(4-Bromophenyl)-1-(2,3-dihydro-1H-inden-2-yl)-4-oxoazetidin-3-yl acetate], in assay [1], the affinity corresponds to a Ki of 0.93 ± 0.295 nM and the IC50 is 4.03 nM. In addition, in assay [2], the inhibitory constant (Ki) turned out to be 0.97 ± 0.245 nM and the IC50 was determined as 2.55 nM.

Values taken from PMC5085765, “Discovery of Potent Carbonic Anhydrase and Acetylcholinesterase Inhibitors: 2-Aminoindan β-Lactam Derivatives” (International Journal of Molecular Sciences, 2016).
